From the supplement of paper PMC10307832

Assays:
Experiment in all cases: relative viability (nuclei count vs DMSO), 5 days (fraction); higher = more cells survive
NCI-H1792 = tested on: NCI-H1792
In short: (§1)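 Lung cancer cell lines in 1536-well plates were dosed by pin tool the day after seeding, either with one drug alone or with a fixed anchor-drug dose plus five library-drug doses (not always all listed) in √10 steps. After 5 days, cells were fixed and their nuclei stained in one step (final 0.05% Triton X-100, 1% formaldehyde, 1 ug/ml Hoechst), then counted on 4× images. Relative viability is the nuclei count in treated wells divided by that in vehicle wells. Values are medians of duplicate plates.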

LU99A = tested on: LU99A
In short: as §1

HCC-827 = tested on: HCC-827
In short: as §1

NCI-H2126 = tested on: NCI-H2126
In short: as §1

SK-MES-1 = tested on: SK-MES-1
In short: as §1

NCI-H727 = tested on: NCI-H727
In short: as §1

NCI-H1734 = tested on: NCI-H1734
In short: as §1

COR-L 105 = tested on: COR-L 105
In short: as §1

BEN = tested on: BEN
In short: as §1

LCLC-97TM1 = tested on: LCLC-97TM1
In short: as §1

SW 1573 = tested on: SW 1573
In short: as §1

EMC-BAC-2 = tested on: EMC-BAC-2
In short: as §1

LOU-NH91 = tested on: LOU-NH91
In short: as §1

RERF-LC-KJ = tested on: RERF-LC-KJ
In short: as §1

EKVX = tested on: EKVX
In short: as §1

EPLC-272H = tested on: EPLC-272H
In short: as §1

NCI-H358 = tested on: NCI-H358
In short: as §1

LK-2 = tested on: LK-2
In short: as §1

NCI-H2087 = tested on: NCI-H2087
In short: as §1

HCC-78 = tested on: HCC-78
In short: as §1

NCI-H1944 = tested on: NCI-H1944
In short: as §1

Structure (SMILES): O=C(O)CCCCC(CCSCc1ccccc1)SCc1ccccc1 (centres undefined) [CPI-613] + C[C@]1(O)C[C@@H](c2nc(-c3ccc4ccc(-c5ccccc5)nc4c3)c3c(N)nccn32)C1 [Linsitinib] (partner 1 µM)
- relative viability (NCI-H1792; first compound 5 µM): 0.514
- relative viability (NCI-H1792; first compound 15.81 µM): 0.49
- relative viability (NCI-H1792; first compound 50 µM): 0.56
- relative viability (NCI-H1792; first compound 158.11 µM): 0.411
- relative viability (NCI-H1792; first compound 500 µM): 0.512
- relative viability (LU99A; first compound 5 µM): 0.519
- relative viability (LU99A; first compound 15.81 µM): 0.461
- relative viability (LU99A; first compound 50 µM): 0.561
- relative viability (LU99A; first compound 158.11 µM): 0.273
- relative viability (LU99A; first compound 500 µM): 0.0476
- relative viability (HCC-827; first compound 5 µM): 0.967
- relative viability (HCC-827; first compound 15.81 µM): 0.892
- relative viability (HCC-827; first compound 50 µM): 0.906
- relative viability (HCC-827; first compound 158.11 µM): 0.613
- relative viability (HCC-827; first compound 500 µM): 0.0916
- relative viability (NCI-H2126; first compound 5 µM): 0.721
- relative viability (NCI-H2126; first compound 15.81 µM): 0.751
- relative viability (NCI-H2126; first compound 50 µM): 0.712
- relative viability (NCI-H2126; first compound 158.11 µM): 0.534
- relative viability (NCI-H2126; first compound 500 µM): 0.567
- relative viability (SK-MES-1; first compound 5 µM): 1.08
- relative viability (SK-MES-1; first compound 15.81 µM): 1.04
- relative viability (SK-MES-1; first compound 50 µM): 1.03
- relative viability (SK-MES-1; first compound 158.11 µM): 0.863
- relative viability (SK-MES-1; first compound 500 µM): 0.988
- relative viability (NCI-H727; first compound 5 µM): 0.251
- relative viability (NCI-H727; first compound 15.81 µM): 0.343
- relative viability (NCI-H727; first compound 50 µM): 0.2
- relative viability (NCI-H727; first compound 158.11 µM): 0.216
- relative viability (NCI-H727; first compound 500 µM): 0.0496
- relative viability (NCI-H1734; first compound 5 µM): 0.93
- relative viability (NCI-H1734; first compound 15.81 µM): 0.821
- relative viability (NCI-H1734; first compound 50 µM): 0.83
- relative viability (NCI-H1734; first compound 158.11 µM): 0.69
- relative viability (NCI-H1734; first compound 500 µM): 0.117
- relative viability (COR-L 105; first compound 5 µM): 1.15
- relative viability (COR-L 105; first compound 15.81 µM): 0.77
- relative viability (COR-L 105; first compound 50 µM): 0.902
- relative viability (COR-L 105; first compound 158.11 µM): 0.664
- relative viability (COR-L 105; first compound 500 µM): 0.181
- relative viability (BEN; first compound 5 µM): 0.881
- relative viability (BEN; first compound 15.81 µM): 0.784
- relative viability (BEN; first compound 50 µM): 0.941
- relative viability (BEN; first compound 158.11 µM): 0.747
- relative viability (BEN; first compound 500 µM): 0.72
- relative viability (LCLC-97TM1; first compound 5 µM): 0.186
- relative viability (LCLC-97TM1; first compound 15.81 µM): 0.167
- relative viability (LCLC-97TM1; first compound 50 µM): 0.199
- relative viability (LCLC-97TM1; first compound 158.11 µM): 0.16
- relative viability (LCLC-97TM1; first compound 500 µM): 0.0574
- relative viability (SW 1573; first compound 5 µM): 0.878
- relative viability (SW 1573; first compound 15.81 µM): 0.751
- relative viability (SW 1573; first compound 50 µM): 0.816
- relative viability (SW 1573; first compound 158.11 µM): 0.625
- relative viability (SW 1573; first compound 500 µM): 0.576
- relative viability (EMC-BAC-2; first compound 5 µM): 0.733
- relative viability (EMC-BAC-2; first compound 15.81 µM): 0.823
- relative viability (EMC-BAC-2; first compound 50 µM): 0.825
- relative viability (EMC-BAC-2; first compound 158.11 µM): 0.701
- relative viability (EMC-BAC-2; first compound 500 µM): 0.272
- relative viability (LOU-NH91; first compound 5 µM): 0.918
- relative viability (LOU-NH91; first compound 15.81 µM): 0.907
- relative viability (LOU-NH91; first compound 50 µM): 1.06
- relative viability (LOU-NH91; first compound 158.11 µM): 0.971
- relative viability (LOU-NH91; first compound 500 µM): 0.959
- relative viability (RERF-LC-KJ; first compound 5 µM): 0.878
- relative viability (RERF-LC-KJ; first compound 15.81 µM): 0.869
- relative viability (RERF-LC-KJ; first compound 50 µM): 0.887
- relative viability (RERF-LC-KJ; first compound 158.11 µM): 0.87
- relative viability (RERF-LC-KJ; first compound 500 µM): 0.885
- relative viability (EKVX; first compound 5 µM): 0.993
- relative viability (EKVX; first compound 15.81 µM): 0.988
- relative viability (EKVX; first compound 50 µM): 0.955
- relative viability (EKVX; first compound 158.11 µM): 1.04
- relative viability (EKVX; first compound 500 µM): 1.05
- relative viability (EPLC-272H; first compound 5 µM): 1.21
- relative viability (EPLC-272H; first compound 15.81 µM): 1.15
- relative viability (EPLC-272H; first compound 50 µM): 1.05
- relative viability (EPLC-272H; first compound 158.11 µM): 0.759
- relative viability (EPLC-272H; first compound 500 µM): 0.698
- relative viability (NCI-H358; first compound 5 µM): 0.684
- relative viability (NCI-H358; first compound 15.81 µM): 0.769
- relative viability (NCI-H358; first compound 50 µM): 0.743
- relative viability (NCI-H358; first compound 158.11 µM): 0.347
- relative viability (NCI-H358; first compound 500 µM): 0.0758
- relative viability (LK-2; first compound 5 µM): 0.526
- relative viability (LK-2; first compound 15.81 µM): 0.637
- relative viability (LK-2; first compound 50 µM): 0.655
- relative viability (LK-2; first compound 158.11 µM): 0.853
- relative viability (LK-2; first compound 500 µM): 0.54
- relative viability (NCI-H2087; first compound 5 µM): 1.01
- relative viability (NCI-H2087; first compound 15.81 µM): 0.758
- relative viability (NCI-H2087; first compound 50 µM): 0.868
- relative viability (NCI-H2087; first compound 158.11 µM): 0.178
- relative viability (NCI-H2087; first compound 500 µM): 0.0125
- relative viability (HCC-78; first compound 5 µM): 0.48
- relative viability (HCC-78; first compound 15.81 µM): 0.538
- relative viability (HCC-78; first compound 158.11 µM): 0.573
- relative viability (HCC-78; first compound 500 µM): 0.487
- relative viability (NCI-H1944; first compound 5 µM): 1.31
- relative viability (NCI-H1944; first compound 15.81 µM): 1.15
- relative viability (NCI-H1944; first compound 50 µM): 1.14
- relative viability (NCI-H1944; first compound 158.11 µM): 0.968
- relative viability (NCI-H1944; first compound 500 µM): 0.787
